# Measured values published in US8993282B2, “Carotenoid fermentation method” (JX Nippon Oil & Energy Corporation, priority 2008, dated 2015).
# Columns and labels:
# [1] = system: Paracoccus carotinifaciens strain E-396 (FERM BP-4283); experiment: Amino acid supplementation (20 amino acids), test tube culture, carotenoid by HPLC and growth by OD610; type: cell-based; settings: amino acid at 1.0 g/L
# Procedure: (§1) In the examples, carotenoids were quantified by high performance liquid chromatography (HPLC) as follows.
# (§2) Two columns of Wakosil-II 5 SIL-100 (φ4.6×250 mm) (Wako Pure Chemical Industries, Ltd., Japan) were connected to each other for use as a column. Elution was performed by flowing an n-hexane-tetrahydrofuran-methanol mixed solution (40:20:1), which was a mobile phase, at a flow rate of 1.0 mL/minute at a constant temperature around room temperature. The measurement was performed as follows. Samples were each dissolved in tetrahydrofuran and then diluted 100-fold with the mobile phase. Each dilution was injected in a volume of 20 μL. The column eluate was detected at a wavelength of 470 nm. As a reference for quantification, astaxanthin (SIGMA, Cat. No. A9335) was used. The astaxanthin concentration of the reference solution was determined using the following equation after measuring the absorbance (A) of the reference solution at 477 nm and the area percentage % (B) of the astaxanthin peak at the time of HPLC analysis under the above conditions. Astaxanthin concentration (mg/L)=A/2150×B×100
# (§3) A medium of the following composition (sucrose 30 g/L, corn steep liquor 30 g/L, potassium dihydrogenphosphate 1.5 g/L, disodium hydrogenphosphate 12-hydrate 3.8 g/L, calcium chloride dihydrate 5.0 g/L, magnesium sulfate 7-hydrate 0.7 g/L, iron sulfate 7-hydrate 0.3 g/L, pH 7.2) was dispensed in 8 ml volumes into cotton-plugged test tubes having an inner diameter of 18 mm and sterilized in an autoclave at 121° C. for 15 minutes to prepare a test tube medium for seed culture.
# Next, a medium of the following composition (glucose 30 g/L, filtered corn steep liquor 5 g/L, ammonium sulfate 1.5 g/L, potassium dihydrogenphosphate 1.5 g/L, disodium hydrogenphosphate 12-hydrate 3.8 g/L, calcium chloride dihydrate 5.0 g/L, magnesium sulfate 7-hydrate 0.7 g/L, iron sulfate 7-hydrate 0.6 g/L, ester-based defoaming agent 0.2 g/L) was dispensed in 8 ml volumes into cotton-plugged test tubes having an inner diameter of 18 mm (21 tubes in total).
# The mediums in these test tubes were supplemented with 20 amino acids, glycine, alanine, valine, leucine, isoleucine, serine, threonine, aspartic acid, glutamic acid, asparagine, glutamine, lysine, arginine, cysteine, methionine, phenylalanine, tyrosine, tryptophan, histidine and proline, respectively, at 1.0 g/L. One of the tubes was supplemented with no amino acid as a control. Finally, the mediums in the tubes were adjusted to pH 7.1 with aqueous sodium hydroxide or aqueous sulfuric acid and then sterilized in an autoclave at 121° C. for 20 minutes.
# Paracoccus carotinifaciens strain E-396 (FERM BP-4283) was inoculated into the test tube medium for seed culture and then cultured with shaking at 28° C. for 2 days at 300 spm. The resulting culture solution was then inoculated in 0.1 ml volumes into the 21 test tube media, respectively, and cultured with shaking at 28° C. for 4 days at 300 spm.
# Each culture solution was measured for its carotenoid concentration by HPLC and microbial cell growth was determined by OD610 (absorbance at 610 nm).
# [2] = system: mutant Paracoccus sp. strain Y-1071; experiment: Glutamate vs yeast extract supplementation, test tube culture (defined medium), carotenoid by HPLC; type: cell-based
# Procedure: as §1, §2
# as §3, with “(glucose 20” for “(sucrose 30”, “dry yeast 5” for “corn steep liquor 30”, “0.1” for “5.0”, “3” for “0.3”
# Next, a medium of the following composition (glucose 40 g/L, ammonium sulfate 1.5 g/L, potassium dihydrogenphosphate 0.54 g/L, dipotassium hydrogenphosphate 2,78 g/L, calcium chloride dihydrate 1 g/L, sodium chloride 3 g/L, magnesium sulfate 7-hydrate 0.7 g/L, iron sulfate 7-hydrate 5 g/L, zinc sulfate 7-hydrate 2 mg/L, cobalt chloride 6-hydrate 2 mg/L, copper sulfate 5-hydrate 1 mg/L, manganese sulfate 5-hydrate 4 mg/L, sodium molybdate dihydrate 2 mg/L, nickel sulfate 6-hydrate 1 mg/L, sodium selenate 0.5 mg/L, boric acid 5 mg/L, potassium iodide 1 mg/L, cyanocobalamin 1 mg/L, riboflavin 10 mg/L, calcium pantothenate 15 mg/L, pyridoxine hydrochloride salt 20 mg/L, thiamine hydrochloride salt […], ascorbic acid 30 mg/L, folic acid 1 mg/L, niacin 15 mg/L, p-aminobenzoic acid 10 mg/L, biotin 0.1 mg/L, myo-inositol 50 mg/L, choline 10 mg/L, polyether-based defoaming agent 0.2 g/L) was dispensed in 8 ml volumes into cotton-plugged test tubes having an inner diameter of 18 mm (4 tubes in total).
# For use in this medium, glucose, inorganic salts, trace metals and vitamins were prepared separately. Glucose, inorganic salts and trace metals were sterilized by heating at 121° C. for 15 minutes, while vitamins were sterilized by filtration. Then, these 4 solutions were mixed together.
# Further, one of the test tubes was supplemented with a heat-sterilized aqueous solution of monosodium L-glutamate monohydrate to 6 g/L (32 mmol/L), another tube was supplemented with a heat-sterilized aqueous yeast extract to 6 g/L, another tube was supplemented with the same yeast extract to 12 g/L, and the other tube was supplemented with nothing. Finally, the mediums in the tubes were aseptically supplemented with 12% aqueous ammonia to give pH 7.2.
# The mutant Paracoccus sp. strain Y-1071 selected in Example 3 was inoculated into the test tube medium for seed culture and then cultured with shaking at 30° C. for 2 days at 300 spm. The resulting culture solution was then inoculated in 0.1 ml volumes into the 4 test tube media and cultured with shaking at 3(1° C. for 3 days at 300 spm.
# Each culture solution was measured for its carotenoid concentration by HPLC.
# [3] = culture solution, 28° C. for 4 days
smiles,measurement,setting,value
"N[C@@H](CCC(=O)O)C(=O)O [Glutamic acid, glutamic acid]",effect on the production of carotenoid pigments,[1]; versus tube with no amino acid,stimulatory effect
same,Astaxanthin,[1]; [3],10.7 mg/L
same,Total carotenoid,[1]; [3],28.2 mg/L
same,OD610,"[1]; microbial cell growth, absorbance at 610 nm, 28° C. for 4 days",17
same,produced carotenoid concentration compared to the sample without glutamic acid,"[2]; glutamic acid 6 g/L (32 mmol/L), yeast extract 6 g/L and 12 g/L",higher produced carotenoid concentration
same,"Produced carotenoid concentration, 3-Hydroxyechinenone","[2]; supplement 6 g/L, 3 days",0.2 mg/L
same,"Produced carotenoid concentration, Adonixanthin","[2]; supplement 6 g/L, 3 days",3.3 mg/L
same,"Produced carotenoid concentration, Astaxanthin","[2]; supplement 6 g/L, 3 days",13.7 mg/L
same,"Produced carotenoid concentration, Asteroidenone","[2]; supplement 6 g/L, 3 days",0.2 mg/L
same,"Produced carotenoid concentration, Canthaxanthin","[2]; supplement 6 g/L, 3 days",1.8 mg/L
same,"Produced carotenoid concentration, Echinenone","[2]; supplement 6 g/L, 3 days",0.9 mg/L
same,"Produced carotenoid concentration, Phoenicoxanthin","[2]; supplement 6 g/L, 3 days",4.1 mg/L
same,"Produced carotenoid concentration, Total Carotenoid","[2]; supplement 6 g/L, 3 days",26.3 mg/L
same,"Produced carotenoid concentration, Zeaxanthin","[2]; supplement 6 g/L, 3 days",0.06 mg/L
same,"Produced carotenoid concentration, β-Carotene","[2]; supplement 6 g/L, 3 days",2.0 mg/L
same,"Produced carotenoid concentration, β-Cryptoxanthin","[2]; supplement 6 g/L, 3 days",0.02 mg/L
